# Test results published in patent US20160068843A1 (priority 2012, published 2016).
# System: H1N1 strain (A/California/07/09 (H1N1)pdm09)
# Set-up: species or system mice
# Details: mouse, in vivo
compound,measurement,value
CCOC(=O)C1=C[C@@H](OC(CC)CC)[C@H](NC(C)=O)[C@@H](N)C1 [Tamiflu],survival compared with siRNA combination,equivalent
